Measurements published in paper PMC9727182, “Identification of pharmacokinetic markers for safflower injection using a combination of system pharmacology, multicomponent pharmacokinetics, and quantitative proteomics study” (Frontiers in Pharmacology, 2022).
Where “and” joins values, the source holds several entries; their conditions need not be identical. Equal entries are not always repeated.

Key:
[1] = Multicomponent pharmacokinetics in rat plasma after i.v. safflower injection (SI); settings: for AUC(0-inf) / AUC(0-t) / Cmax / MRT inf / MRT last / Vd / clearance / half-life: male, Sprague-Dawley, rat, in vivo, iv
Description: The animal experiments were approved by the Animal Care and Use Committee of the College of Animal Science (College of Bee Science), Fujian Agriculture and Forestry University (Approval Number: PZCASFAFU21012). 250 ± 20 g of male Sprague-Dawley (SD) rats were provided by Lab Animal Center in Fujian Medical University (Fuzhou, China).
Ten rats were divided into three groups (Low dose group, n = 4; medium and high groups, n = 3, respectively). […] For each rat, 2 ml of physiological saline was supplemented after 30 min sampling via intraperitoneal injection. The plasma samples were obtained by centrifugation at 3,000 rpm for 10 min and stored at −20°C until analysis.
Clear supernatant (5 μl) was injected into HPLC-MS for bioanalysis.
The sample was separated on a RD-C18 column (4.6 mm × 50 mm, 3.5 μm, Zhongpu Develop, China). The mobile phase incudes water with 0.1% acetic acid (A) and acetonitrile (B). […] The column temperature, flow rate and injection volume were set at 30°C, 0.5 ml/min and 5 μl, respectively.
Non-compartmental model was used to calculate the PK parameters by DAS 3.0 software (Chinese Pharmacologic Society, Beijing, China). A single-tailed t-test was carried out in the study.

[2] = system: H9c2 cardiomyocytes injured by H2O2; assay: TMT quantitative proteomics of H2O2-injured cardiomyocytes; type: cell-based; settings: 168 μM
Description: The procedures for cell culture, group and administration are similar to those in “2.7. […] Briefly, the difference is that H9c2 cells were seeded and cultured in a culture flask with a bottom area of 25 cm^2 with a density 1×10^5 cells/ml. After treatment, about 3×10^7 cells per group were collected for the next quantitative proteomics investigation, which was done by Jingjie PTM Biolabs (Hangzhou, China). All the procedures for quantitative proteomics can be found in the section of “5. Quantitative proteomics” of the Supplementary Material.
The quantitative proteomics study was carried out according to our previous report ([Li et al., 2022]). Relative quantitative values of proteins in two samples were compared via t-test. […] The identified difference proteins between groups were subjected further to principal component analysis (PCA). […] The subcellular structure location was analyzed using these proteins as objectives.

[3] = system: H9c2 cardiomyocytes injured by H2O2; assay: Protection of cardiomyocytes injured by H2O2 (MTT); type: cell-based; settings: for cell viability vs. model group: pretreated 24 h, 250 μM H2O2 2 h
Description: H9c2 cardiomyocytes obtained from Cell Bank of the Chinese Academy of Sciences (Shanghai, China) were cultured in DMEM (high glucose) supplemented with 1% P/S and 15% FBS in 5% CO2 at 37°C. The cells were collected with 0.25% trypsin, followed by re-seeding in 96-well multiplates with a density of 5×10^3 cells per well. The cell experiments were grouped as follows: normal group, model group (H2O2), administration groups and positive control groups (N-Acetyl-L-cysteine, NAC). […] After that, cells were incubated with 0.5 mg/ml of MTT for 4 h under standard condition, followed by addition of 150 µl DMSO into every well. The cell supernatants were finally removed and the optical density (OD) was recorded at 570 nm using a microplate reader (Thermo Fisher Scientific, United States). The protection rate of the compounds on H9c2 cardiomyocytes was calculated as (OD valueadministration group (or NAC group)-OD valuemodel group)/(OD valuenormal group-OD valuemodel group) ×100%.

[4] = Stability in diluted SI at room temperature; settings: analyzed at 0, 2, 4, 8, 12, 24, and 48 h
[5] = Stability of 6 compounds of SI in rat plasma; settings: for 10h in auto-sampler vials RE: extracted rat plasma; for 6h at room temperature RE / Freeze-thaw stability (three cycles) RE / Long-term stability (-80℃,15 days) RE: rat plasma
Source text: The LC-MS method was validated by linearity, limits of detection (LOD), limits of quantification (LOQ), precision, accuracy, extraction recovery, matrix effect and stability of the 6 ingredients in rat plasma. Calibration curves were plotted using weighted linear regression of the peak area ratio of analyte to the IS against the corresponding nominal concentration of the analyte. LOD and LOQ were defined as the detectable concentration at which the ratio of signal to noise was more than 3 and 10, respectively. Intra- and inter-day accuracy and precision were assessed by detecting quality control (QC) samples using five replicates of rat samples at three concentration levels on one or three validation days, respectively. Accuracy and precision were expressed by relative error (RE) and relative standard deviation (RSD), respectively. The extraction recovery and matrix effect of the 6 components at above-mentioned three concentration levels were determined. Stability was assessed under the condition of placing un-treated plasma samples at room temperature for 6 h, and extracted plasma samples in auto-sampler for 10 h, as well as placing plasma samples within freeze-thaw three cycles and at −80 °C for 15 days.

With `COc1cc(/C=C/CO)cc(OC)c1O[C@@H]1O[C@H](CO)[C@@H](O)[C@H](O)[C@H]1O` [SYR, syringin] the “detection in rat plasma” value ([1]; 1 h after administration (2 ml/kg of SI), preliminary test) was “can be detected”, the “systematic exposure of SYR lower than that of HSYA” value ([1]; after administration of SI) was “over 10 times” and the AUC(0-inf) ([1]; 1 ml/kg) was 116 ± 70.5 ng·h/mL. For the same compound, the AUC(0-t) ([1]; 1 ml/kg) was 101 ± 57.4 ng·h/mL, the Cmax ([1]; 1 ml/kg) was 260 ± 59.4 ng/mL and the MRT inf ([1]; 1 ml/kg) was 22.8 ± 9.6 min. The MRT last ([1]; 1 ml/kg) was 16.2 ± 6 min, the Vd ([1]; 1 ml/kg) was 0.21 ± 0.07 L/kg and the clearance ([1]; 1 ml/kg) was 11.5 mL/min/kg. It also gave a half-life ([1]; 1 ml/kg) of 15 ± 5.4 min, an AUC(0-inf) ([1]; 2 ml/kg) of 368 ± 78.7 ng·h/mL and an AUC(0-t) ([1]; 2 ml/kg) of 363 ± 81.5 ng·h/mL. For the same compound, the Cmax ([1]; 2 ml/kg) was 465 ± 42.9 ng/mL, the MRT inf ([1]; 2 ml/kg) was 45 ± 8.4 min and the MRT last ([1]; 2 ml/kg) was 41.4 ± 4.2 min. It also gave a Vd ([1]; 2 ml/kg) of 0.31 ± 0.2 L/kg, a clearance ([1]; 2 ml/kg) of 5.67 mL/min/kg and a half-life ([1]; 2 ml/kg) of 36.6 ± 15 min. For the same compound, the AUC(0-inf) ([1]; 4 ml/kg) was 592 ± 96.6 ng·h/mL, the AUC(0-t) ([1]; 4 ml/kg) was 586 ± 94.4 ng·h/mL and the Cmax ([1]; 4 ml/kg) was 925 ± 38.5 ng/mL. For the same compound, the MRT inf ([1]; 4 ml/kg) was 42.6 ± 13.8 min, the MRT last ([1]; 4 ml/kg) was 40.2 ± 12.6 min and the Vd ([1]; 4 ml/kg) was 0.31 ± 0.11 L/kg. For the same compound, the clearance ([1]; 4 ml/kg) was 6.83 mL/min/kg, the half-life ([1]; 4 ml/kg) was 31.8 ± 13.8 min and the “detected mean maximum plasma concentration” value ([1]; rats, after administration of 4 ml/kg of SI) was 0.93 μg/mL and 2.5 μM. For the same compound, the “proteins downregulated vs. M group” value ([2]; fold change ≤1/1.5, p <0.05) was 231 proteins, the “proteins upregulated vs. M group” value ([2]; fold change ≥1.5, p <0.05) was 131 proteins and the KEGG pathway regulation ([2]; vs. M group) was “downregulated the ribosome pathway and upregulated the lysosome pathway”. The “changed protein expression located at the cytoplasm” value ([2]; vs. M group) was 42.54%, the “changed protein expression located at the nucleus” value ([2]; vs. M group) was 30.39% and the “cell viability vs. model group” value ([3]; 5 μM) was “higher cell viability than the model group”. The “cell viability vs. model group” value ([3]; 10 μM) was “higher cell viability than the model group”, the “anti-H2O2 injury effect (protection rate)” value ([3]; 1, 5 and 10 μM) was “concentration-dependent” and the “Stability RSD” value [4] was 2.76%. The “10h in auto-sampler vials RE” value ([5]; spiked 40 ng/mL) was -12.50%, the “10h in auto-sampler vials RE” value ([5]; spiked 400 ng/mL) was 1.61% and the “10h in auto-sampler vials RE” value ([5]; spiked 10000 ng/mL) was 1.41%. For the same compound, the “6h at room temperature RE” value ([5]; spiked 40 ng/mL) was -2.50%, the “Freeze-thaw stability (three cycles) RE” value ([5]; spiked 40 ng/mL) was 1.50% and the “Long-term stability (-80℃,15 days) RE” value ([5]; spiked 40 ng/mL) was -9.50%. The “6h at room temperature RE” value ([5]; spiked 400 ng/mL) was 3.65%, the “Freeze-thaw stability (three cycles) RE” value ([5]; spiked 400 ng/mL) was 2.65% and the “Long-term stability (-80℃,15 days) RE” value ([5]; spiked 400 ng/mL) was 0.30%. The “6h at room temperature RE” value ([5]; spiked 10000 ng/mL) was 1.55%, the “Freeze-thaw stability (three cycles) RE” value ([5]; spiked 10000 ng/mL) was 2.30% and the “Long-term stability (-80℃,15 days) RE” value ([5]; spiked 10000 ng/mL) was 0.98%.
